Reference: patent publication US20070135436A1, “Chemical compounds” (Clavis Pharma AS, priority 2005, published 2007)
Like-named read-outs stand apart in the source and are kept apart here.

Experiments:
[1] = tested on: breast cancer cell line MaTu; assay: MTT growth inhibition in breast cancer cell line MaTu; format: cell-based, human; conditions: MaTu cells; for IC50: 4 days incubation, MTT, read-out: IC50 μM ± Standard Deviation
Description: The breast cancer cell line MaTu was seeded, 5×10^3 cells per well, in 96-well-plates. The medium was RMPI 1640 with 2 mM Glutamine and 10% Foetal Bovine Serum. 24 hours later the test compounds were added in 6 concentrations. The cells were incubated for 4 days. The MTT solution was added to each well and incubated for 4 hours. The samples were read by an ELISA reader at 540 nm. The IC50 values were determined from growth curves. The test compounds were troxacitabine elaidic amid, troxacitabine petroselaidoate, troxacitabine-petroselaidic amide and troxacitabine γ-linolenoate.

several cell lines = conditions: prior art references; cited from earlier work

| SMILES | IC50 ([1]; Homo sapiens, 96 h) [µM] | also measured |
| --- | --- | --- |
| CCCCC/C=C\C/C=C\C/C=C\CCCCC(=O)OC[C@H]1OC[C@@H](n2ccc(N)nc2=O)O1 [troxacitabine γ-linolenoate, Troxacitabine 2′-hydroxymethyl-6,9,12-linolenoate] | 0.83 ± 0.59 | – |
| CCCCCCCCC=CCCCCCCCC(=O)Nc1ccn(C2COC(CO)O2)c(=O)n1 (stereo not drawn) [oleic acid amid derivative] | – | times better activity than the elaidic acid amide counterpart (several cell lines): 2 to 5 times |
| CCCCCCCC/C=C/CCCCCCCC(=O)Nc1ccn([C@@H]2CO[C@H](CO)O2)c(=O)n1 [troxacitabine elaidic-amide, Troxacitabine N^4-elaidic Acid Amide, reference compound] | – | IC50 [1]: 3.58 ± 2.56 µM |

Second part, led by results:

| IC50 ([1]; Homo sapiens, 96 h) [µM] | SMILES | also measured |
| --- | --- | --- |
| 0.18 ± 0.12 | CCCCCCCCCCC/C=C/CCCCC(=O)OC[C@H]1OC[C@@H](n2ccc(N)nc2=O)O1 [troxacitabine petroselaidoate, Troxacitabine-2′-hydroxymethyl-petroselaidoate] | fold more active than troxacitabine elaidic amide ([1]; relative to troxacitabine elaidic amide): 20 fold |
| 0.15 ± 0.07 | CCCCCCCCCCC/C=C/CCCCC(=O)Nc1ccn([C@@H]2CO[C@H](CO)O2)c(=O)n1 [troxacitabine-petroselaidic amide, Troxacitabine N^4-petroselaidic Acid Amide] | – |
